According to patent US20180071317A1, “USE OF AGENTS THAT ALTER THE PERITUMORAL ENVIRONMENT FOR THE TREATMENT OF CANCER” (SERVICIO ANDALUZ DE SALUD, priority 2011, published 2018):

Tests used:
[1] = test system: fibroblasts (PHF) co-cultured with tumor cells of human gastric adenocarcinoma (23132/87); assay: Marker expression (IHC) in PHF co-cultured with 23132/87 tumor cells; type: cell-based; settings: co-culture with 23132/87; SP 1 μM + antagonist 1 μM; 48 h;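 note: cultures grown in fresh plasma from a healthy human donor, values give the percentage of PHF fibroblasts positive for the marker, each experiment run in six replicates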
Procedure: (§1) All cultures were maintained 48 hours, following which the same cells were included in paraffin blocks for subsequent analysis of the expression of different markers by immunohistochemistry (see Example 1). The primary antibodies used to perform immunohistochemical assays and their concentration are detailed in Example 2. All experiments were carried out sixfold. Analyzed markers in fibroblast cells (stromal cells) were: TGF-α, TGF-β1, TGF-β2, TGF-β3, SPARC, MMP-3, MMP-7, MMP-9, MMP-11, MMP-13 and MMP-14.

[2] = test system: fibroblasts (PHF) co-cultured with tumor cells of human colon adenocarcinoma (SW-403); assay: Marker expression (IHC) in PHF co-cultured with SW-403 tumor cells; type: cell-based; settings: co-culture with SW-403; SP 1 μM + antagonist 1 μM; 48 h
Procedure: as §1

[3] = test system: fibroblasts (PHF) co-cultured with tumor cells of human cervix carcinoma (KB); assay: Marker expression (IHC) in PHF co-cultured with KB tumor cells; type: cell-based; settings: co-culture with KB; SP 1 μM + antagonist 1 μM; 48 h;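 note: percentage of PHF fibroblasts showing expression of each marker, cultured in fresh blood plasma from a healthy human donor, six replicates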
Procedure: (§2) All cultures were maintained 48 hours, following which the same cells were included in paraffin blocks for subsequent analysis of the expression of different markers by immunohistochemistry (see Example 1). […] All experiments were carried out sixfold. Analyzed markers in fibroblast cells (stromal cells) were: TGF-α, TGF-β1, TGF-β2, TGF-β3, SPARC, MMP-3, MMP-7, MMP-9, MMP-11, MMP-13 and MMP-14.

[4] = test system: fibroblasts (PHF) co-cultured with tumor cells, thyroid carcinoma (reference A-427); assay: Marker expression (IHC) in PHF co-cultured with thyroid carcinoma tumor cells; type: cell-based, human; settings: co-culture with thyroid carcinoma cells; SP 1 μM + antagonist 1 μM; 48 h;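 note: grown in fresh plasma from a healthy human donor, read-out is percent of fibroblasts positive for each marker, compared with fibroblasts cultured alone, run in six replicates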
Procedure: as §2

[5] = test system: fibroblasts (PHF) co-cultured with tumor cells, thyroid carcinoma; assay: as above; type: cell-based, human; settings: co-culture with thyroid carcinoma cells; SP 1 μM + antagonist 1 μM; 48 h
Procedure: as §2

[6] = test system: fibroblasts (PHF) co-cultured with human melanoma tumor cells (MEL-HO1); assay: Marker expression (IHC) in PHF co-cultured with MEL-HO1 tumor cells; type: cell-based; settings: PHF co-cultured with MEL-HO1 + SP + NK1 antagonist;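 note: values are the percentage of fibroblasts positive for each marker, with cultures grown in fresh healthy-donor blood plasma and each experiment run six times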
Procedure: as §2

[7] = test system: fibroblast cells in co-culture with cells isolated from primary human tumors; assay: Marker expression (IHC) in fibroblasts co-cultured with primary human tumor cells (colon, pancreatic, lung carcinoma, glioma, multiple myeloma); type: cell-based
[8] = Primary tumor cells (colon carcinoma) co-cultured + fibroblast + SP (1 μM) + NK1 antagonist 1 μM
[9] = co-culture with cells isolated from glioma, SP 1 μM + antagonist 1 μM
[10] = co-culture with cells isolated from lung cancer, SP 1 μM + antagonist 1 μM
[11] = co-culture with cells isolated from multiple myeloma, SP 1 μM + antagonist 1 μM
[12] = co-culture with cells isolated from pancreatic carcinoma, SP 1 μM + antagonist 1 μM

C[C@@H](O[C@H]1OCCN(Cc2n[nH]c(=O)[nH]2)[C@H]1c1ccc(F)cc1)c1cc(C(F)(F)F)cc(C(F)(F)F)c1 [Aprepitant]
0%: PHF cells expressing MMP-3 [1] | PHF cells expressing MMP-7 [1] | PHF cells expressing MMP-9 [1] | PHF cells expressing MMP-11 [1] | PHF cells expressing MMP-13 [1] | PHF cells expressing MMP-14 [1] | PHF cells expressing SPARC [1] | PHF cells expressing TGF-α [1] | PHF cells expressing TGF-β1 [1] | PHF cells expressing TGF-β2 [1] | PHF cells expressing TGF-β3 [1] | PHF cells expressing MMP-3 [2] | PHF cells expressing MMP-7 [2] | PHF cells expressing MMP-9 [2] | PHF cells expressing MMP-11 [2] | PHF cells expressing MMP-13 [2] | PHF cells expressing MMP-14 [2] | PHF cells expressing SPARC [2] | PHF cells expressing TGF-α [2] | PHF cells expressing TGF-β1 [2] | PHF cells expressing TGF-β2 [2] | PHF cells expressing TGF-β3 [2] | PHF cells expressing MMP-3 [3] | PHF cells expressing MMP-7 [3] | PHF cells expressing MMP-9 [3] | PHF cells expressing MMP-11 [3] | PHF cells expressing MMP-13 [3] | PHF cells expressing MMP-14 [3] | PHF cells expressing SPARC [3] | PHF cells expressing TGF-α [3] | PHF cells expressing TGF-β1 [3] | PHF cells expressing TGF-β2 [3] | PHF cells expressing TGF-β3 [3] | PHF cells expressing MMP-3 [4] | PHF cells expressing MMP-7 [4] | PHF cells expressing MMP-9 [4] | PHF cells expressing MMP-13 [4] | PHF cells expressing MMP-14 [4] | PHF cells expressing SPARC [4] | PHF cells expressing TGF-α [4] | PHF cells expressing TGF-β1 [4] | PHF cells expressing TGF-β2 [4] | PHF cells expressing TGF-β3 [4] | PHF cells expressing MMP-11 [5] | cells expressing MMP-3 [6] | cells expressing MMP-7 [6] | cells expressing MMP-9 [6] | cells expressing MMP-11 [6] | cells expressing MMP-13 [6] | cells expressing MMP-14 [6] | cells expressing SPARC [6] | cells expressing TGF-α [6] | cells expressing TGF-β1 [6] | cells expressing TGF-β2 [6] | cells expressing TGF-β3 [6] | Percentage of fibroblast cells which expressed MMP-3 [7, 8] | Percentage of fibroblast cells which expressed MMP-7 [7, 8] | Percentage of fibroblast cells which expressed MMP-9 [7, 8] | Percentage of fibroblast cells which expressed MMP-11 [7, 8] | Percentage of fibroblast cells which expressed MMP-13 [7, 8] | Percentage of fibroblast cells which expressed MMP-14 [7, 8] | Percentage of fibroblast cells which expressed SPARC [7, 8] | Percentage of fibroblast cells which expressed TGFα [7, 8] | Percentage of fibroblast cells which expressed TGFβ1 [7, 8] | Percentage of fibroblast cells which expressed TGFβ2 [7, 8] | Percentage of fibroblast cells which expressed TGFβ3 [7, 8] | Percentage of fibroblast cells which expressed MMP-3 [7, 9] | Percentage of fibroblast cells which expressed MMP-7 [7, 9] | Percentage of fibroblast cells which expressed MMP-9 [7, 9] | Percentage of fibroblast cells which expressed MMP-11 [7, 9] | Percentage of fibroblast cells which expressed MMP-13 [7, 9] | Percentage of fibroblast cells which expressed MMP-14 [7, 9] | Percentage of fibroblast cells which expressed SPARC [7, 9] | Percentage of fibroblast cells which expressed TGFα [7, 9] | Percentage of fibroblast cells which expressed TGFβ1 [7, 9] | Percentage of fibroblast cells which expressed TGFβ2 [7, 9] | Percentage of fibroblast cells which expressed TGFβ3 [7, 9] | Percentage of fibroblast cells which expressed MMP-3 [7, 10] | Percentage of fibroblast cells which expressed MMP-7 [7, 10] | Percentage of fibroblast cells which expressed MMP-9 [7, 10] | Percentage of fibroblast cells which expressed MMP-11 [7, 10] | Percentage of fibroblast cells which expressed MMP-13 [7, 10] | Percentage of fibroblast cells which expressed MMP-14 [7, 10] | Percentage of fibroblast cells which expressed SPARC [7, 10] | Percentage of fibroblast cells which expressed TGFα [7, 10] | Percentage of fibroblast cells which expressed TGFβ1 [7, 10] | Percentage of fibroblast cells which expressed TGFβ2 [7, 10] | Percentage of fibroblast cells which expressed TGFβ3 [7, 10] | Percentage of fibroblast cells which expressed MMP-3 [7, 11] | Percentage of fibroblast cells which expressed MMP-7 [7, 11] | Percentage of fibroblast cells which expressed MMP-9 [7, 11] | Percentage of fibroblast cells which expressed MMP-11 [7, 11] | Percentage of fibroblast cells which expressed MMP-13 [7, 11] | Percentage of fibroblast cells which expressed MMP-14 [7, 11] | Percentage of fibroblast cells which expressed SPARC [7, 11] | Percentage of fibroblast cells which expressed TGFα [7, 11] | Percentage of fibroblast cells which expressed TGFβ1 [7, 11] | Percentage of fibroblast cells which expressed TGFβ2 [7, 11] | Percentage of fibroblast cells which expressed TGFβ3 [7, 11] | Percentage of fibroblast cells which expressed MMP-3 [7, 12] | Percentage of fibroblast cells which expressed MMP-7 [7, 12] | Percentage of fibroblast cells which expressed MMP-9 [7, 12] | Percentage of fibroblast cells which expressed MMP-11 [7, 12] | Percentage of fibroblast cells which expressed MMP-13 [7, 12] | Percentage of fibroblast cells which expressed MMP-14 [7, 12] | Percentage of fibroblast cells which expressed SPARC [7, 12] | Percentage of fibroblast cells which expressed TGFα [7, 12] | Percentage of fibroblast cells which expressed TGFβ1 [7, 12] | Percentage of fibroblast cells which expressed TGFβ2 [7, 12] | Percentage of fibroblast cells which expressed TGFβ3 [7, 12]
